Drawing on patent US20220289728A1, “MODULATORS OF TREX1” (Constellation Pharmaceuticals, Inc., priority 2019, published 2022), this text covers EC50 and IC50 for 19 compounds.

Molecules are shown by their SMILES.

Assay [1] has as its system HCT116 dual cells. The assay is described as follows: HCT116 Cell Assay (Lucia luciferase reporter of Type I interferon induction). Type of assay: cell-based, human. The conditions noted are these: pBR322/BstNI DNA transfection, Lucia luciferase at 48 h, relative to 10 uM compound 39. From the text:
HCT116 dual cells (Invivogen, San Diego, Calif., USA) are derived from the human HCT116 colorectal carcinoma cell line. Cells have been selected for the stable integration of SEAP and Luciferase reporter genes, which expression is under the control of 5 tandem response elements for NF-KB/AP1 and STAT1/STAT2, respectively. The cell line was used to monitor Type I interferon induction and subsequent signaling by measuring the activity of the Lucia luciferase secreted in the culture medium.
HCT116 cells were plated in 96-well plate(s) at 40,000 cells/well in 100 uL DMEM supplemented with 10% FBS and 25 mM Hepes (pH 7.2-7.5). After overnight settling, cells were treated with TREX1i for 4 h (maximum DMSO fraction was 0.1%) before 1.25 ug/mL pBR322/BstNI restriction digest (New England Biolabs, Ipswich, Mass., USA) was transfected with Lipofectamine LTX (ThermoFisher, Grand Island, N.Y., USA), according to product manual recommendations. Briefly, Lipofectamine LTX (0.4 uL/well) was diluted in OptiMEM (5 uL/well). pBR322/BstNI (100 ng/well) was diluted in OptiMEM (5 uL/well) before Plus reagent (0.1 uL/100 ng DNA) was added. After 5 min incubation at room temperature, the DNA mixture was mixed dropwise with the diluted Lipofectamine LTX. After an additional 10 min incubation, the transfection mix (10 uL/well) was added to the cells. Cells were maintained at 37° C. for 48 h before monitoring the Lucia Luciferase activity from the cell culture medium. EC50 values were calculated by comparing the measured luminescence relative to 10 uM compound 39 (100% inhibition) and no inhibitor (0% inhibition) controls using non-linear least-squares four parameter fits in either Genedata Screener or GraphPad Prism (GraphPad Software, Inc.).

For assay [2], the target named is T1, full length human TREX1 (Homo sapiens, UniProt Q9NSU2).
T1 construct: N-terminally His-Tev tagged full length human TREX1; His-TEV (His tag with TEV site) (N); made in house; host or cells: E. coli
T1 sequence (Q9NSU2 1-314): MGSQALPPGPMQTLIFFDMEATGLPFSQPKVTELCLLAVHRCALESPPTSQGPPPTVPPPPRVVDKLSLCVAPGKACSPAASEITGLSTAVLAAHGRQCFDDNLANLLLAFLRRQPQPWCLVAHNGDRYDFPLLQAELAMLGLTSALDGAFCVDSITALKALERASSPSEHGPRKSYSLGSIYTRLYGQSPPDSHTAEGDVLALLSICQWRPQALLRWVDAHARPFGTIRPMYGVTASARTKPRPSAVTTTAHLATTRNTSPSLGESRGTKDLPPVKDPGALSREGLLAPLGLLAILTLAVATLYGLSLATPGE
Put plainly: TREX1 Biochemical Assay (fluorescence, dsDNA substrate degradation). To be noted: 150 pM TREX1, 60 nM dsDNA substrate, 25 minutes at room temperature. The procedure:
Degradation of the dsDNA liberates free fluorophore to produce a fluorescent signal. Specifically, 7.5 μL of N-terminally His-Tev tagged full length human TREX1 (expressed in E. coli and purified in house) in reaction buffer (50 mM Tris (pH 7.4), 150 mM NaCl, 2 mM DTT, 0.1 mg/mL BSA, 0.01% (v/v) Tween-20 and 100 mM MgCl2) was added to a 384-well Black ProxiPlate Plus (Perkin Elmer) which already contained compound (150 nL) at varying concentrations as a 10 point dose-response in DMSO. To this was added 7.5 μL of dsDNA substrate (Strand A: 5′ TEX615/GCT AGG CAG 3′; Strand B: 5′ CTG CCT AGC/IAbRQSp (Integrated DNA Technologies)) in reaction buffer. Final concentrations were 150 pM TREX1, 60 nM dsDNA substrate in reaction buffer with 1.0% DMSO (v/v). After 25 minutes at room temperature, reactions were quenched by the addition of 5 μL of stop buffer (same as reaction buffer plus 200 mM EDTA). Final concentrations in the quenched reaction were 112.5 pM TREX1, 45 nM DNA and 50 mM EDTA in a volume of 20 μL. After a 5-minute incubation at room temperature, plates were read in a laser sourced Envision (Perkin-Elmer), measuring fluorescence at 615 nm following excitation w/570 nm light. IC50 values were calculated by comparing the measured fluorescence at 615 nm ratio relative to control wells pre-quenched w/stop buffer (100% inhibition) and no inhibitor (0% inhibition) controls as using non-linear least square four parameter fits and either Genedata or GraphPad Prism (GraphPad Software, Inc.).

Assay [3] deals with T2, human TREX2 (residues M44-A279) (Homo sapiens, UniProt Q9BQ50).
T2 construct: human TREX2 (residues M44-A279, expressed in E. coli); His-TEV (His tag with TEV site) (N); made in house; host or cells: E. coli
T2 sequence (Q9BQ50 44-279 isoform Q9BQ50-1): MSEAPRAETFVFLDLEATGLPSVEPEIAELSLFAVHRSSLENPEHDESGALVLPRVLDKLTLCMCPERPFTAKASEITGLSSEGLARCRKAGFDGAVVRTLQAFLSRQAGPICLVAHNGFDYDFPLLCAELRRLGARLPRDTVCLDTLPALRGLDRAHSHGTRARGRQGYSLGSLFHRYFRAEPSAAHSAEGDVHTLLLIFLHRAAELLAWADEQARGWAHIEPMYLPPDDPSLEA
The assay is described as follows: TREX2 Biochemical Assay (fluorescence, dsDNA substrate degradation). The conditions noted are these: 2.5 nM TREX2, 60 nM dsDNA substrate, 25 minutes at room temperature. As for the experimental part:
Degradation of the dsDNA liberates free fluorophore to produce a fluorescent signal. Specifically, 7.5 μL of N-terminally His-Tev tagged human TREX2 (residues M44-A279, expressed in E. coli and purified in house) in reaction buffer (50 mM Tris (pH 7.4), 150 mM NaCl, 2 mM DTT, 0.1 mg/mL BSA, 0.01% (v/v) Tween-20 and 100 mM MgCl2) was added to a 384-well Black ProxiPlate Plus (Perkin Elmer) which already contained compound (150 nL) at varying concentrations as a 10 point dose-response in DMSO. To this was added 7.5 μL of dsDNA substrate (Strand A: 5′ TEX615/GCT AGG CAG 3′; Strand B: 5′ CTG CCT AGC/IAbRQSp (IDT)) in reaction buffer. Final concentrations were 2.5 nM TREX2, 60 nM dsDNA substrate in reaction buffer with 1.0% DMSO (v/v). After 25 minutes at room temperature, reactions were quenched by the addition of 5 μL of stop buffer (same as reaction buffer plus 200 mM EDTA). Final concentrations in the quenched reaction mixture were […] TREX2, 45 nM DNA and 50 mM EDTA in a volume of 20 μL. After a 5-minute incubation at room temperature, plates were read in a laser sourced Envision (Perkin-Elmer), measuring fluorescence at 615 nm following excitation w/570 nm light. IC50 values were calculated by comparing the measured fluorescence at 615 nm ratio relative to control wells pre-quenched w/stop buffer (100% inhibition) and no inhibitor (0% inhibition) controls as using non-linear least square four parameter fits and either Genedata or GraphPad Prism (GraphPad Software, Inc.).

[4] abbreviates: Homo sapiens, HCT-116, 4 h pre-treatment.

For `CN(c1nc(C(=O)Nc2cnoc2)c(O)c(=O)n1C)C(c1ccccc1)c1cccc(C#N)c1` (single isomer, unassigned) [Example 50], the EC50 in assay [1] (setting [4]) is less than 1000 nM. Besides, the IC50 was less than 100 nM in assay [2] and less than 1000 nM in assay [3].
As for `CN(c1nc(C(=O)Nc2cnoc2)c(O)c(=O)n1C)C(c1ccccc1)c1cccc(C#N)c1` (single isomer, unassigned) [Example 51], the EC50 in assay [1] (4 h pre-treatment) lay in the range of 1000 to 10000 nM. In addition, the IC50 in assay [2] was less than 100 nM; in assay [3] it was less than 1000 nM.
`CN(c1nc(C(=O)Nc2cnoc2)c(O)c(=O)n1C)C(c1ccccc1)c1ncccc1Cl` (single isomer, unassigned) [Example 53]: the EC50 in assay [1] (setting [4]) was less than 1000 nM. Besides, the IC50 in assay [2] was less than 100 nM; in assay [3], less than 1000 nM.
With `CN(c1nc(C(=O)Nc2cnoc2)c(O)c(=O)n1C)C(c1ccccc1)c1ncccc1Cl` (single isomer, unassigned) [Example 54], the concentration for a half-maximal effect (EC50) in assay [1] (4 h pre-treatment) is less than 1000 nM. Moreover, the half-inhibitory concentration (IC50) in assay [2] is less than 100 nM; in assay [3], less than 1000 nM.
For `CN(c1nc(C(=O)Nc2cnoc2)c(O)c(=O)n1C)C(c1ccccn1)c1ccccc1Cl` (single isomer, unassigned) [Example 56], the concentration for a half-maximal effect (EC50) in assay [1] (setting [4]) was less than 1000 nM. Further, the IC50 was less than 100 nM in assay [2] and less than 1000 nM in assay [3].
For the compound `CN(c1nc(C(=O)Nc2cnoc2)c(O)c(=O)n1C)C(c1ccccn1)c1ccccc1Cl` (single isomer, unassigned) [Example 57], the 50% effective concentration (EC50) in assay [1] (4 h pre-treatment) is less than 1000 nM. In addition, the concentration for half-maximal inhibition (IC50) in assay [2] is less than 100 nM; in assay [3] it was less than 1000 nM.
In the case of `Cc1cccnc1C(c1ccccc1)N(C)c1nc(C(=O)Nc2cnoc2)c(O)c(=O)n1C` (single isomer, unassigned) [Example 58], in assay [1] (setting [4]), the half-maximal effective concentration (EC50) lay in the range of 1000 to 10000 nM. Moreover, the IC50 was less than 100 nM in assay [2] and 1000 to 10000 nM in assay [3].
For the compound `Cc1cccnc1C(c1ccccc1)N(C)c1nc(C(=O)Nc2cnoc2)c(O)c(=O)n1C` (single isomer, unassigned) [Example 59], the EC50 in assay [1] (4 h pre-treatment) was less than 1000 nM. The figures for the IC50 in assay [2] and in assay [3] were less than 100 nM and less than 1000 nM, respectively.
For the compound `CN(c1nc(C(=O)Nc2cnoc2)c(O)c(=O)n1C)C(c1ccccn1)c1c(Cl)cccc1Cl` (single isomer, unassigned) [Example 60], the concentration giving a half-maximal response (EC50) in assay [1] (setting [4]) lay within 1000 to 10000 nM. The half-maximal inhibitory concentration (IC50) in assay [2] was less than 100 nM; in assay [3], 1000 to 10000 nM.
`CN(c1nc(C(=O)Nc2cnoc2)c(O)c(=O)n1C)C(c1ccccn1)c1c(Cl)cccc1Cl` (single isomer, unassigned) [Example 61]: the half-maximal effective concentration (EC50) in assay [1] (4 h pre-treatment) was less than 1000 nM. The concentration for half-maximal inhibition (IC50) in assay [2] was less than 100 nM; in assay [3] it was less than 1000 nM.
Consider `Cc1cccc(Cl)c1C(c1ccccn1)N(C)c1nc(C(=O)Nc2cnoc2)c(O)c(=O)n1C` (single isomer, unassigned) [Example 62], for which the half-maximal effective concentration (EC50) in assay [1] (setting [4]) is less than 1000 nM. The 50% inhibitory concentration (IC50) was less than 100 nM in assay [2] and less than 1000 nM in assay [3].
As to `Cc1cccc(Cl)c1C(c1ccccn1)N(C)c1nc(C(=O)Nc2cnoc2)c(O)c(=O)n1C` (single isomer, unassigned) [Example 63], the concentration for a half-maximal effect (EC50) in assay [1] (4 h pre-treatment) fell in the range of 1000 to 10000 nM. Moreover, the 50% inhibitory concentration (IC50) in assay [2] was less than 100 nM; in assay [3] it was less than 1000 nM.
Regarding `CN(c1nc(C(=O)Nc2cnoc2)c(O)c(=O)n1C)C(c1ccccc1Cl)C1CC1` (single isomer, unassigned) [Example 68], the EC50 in assay [1] (setting [4]) is less than 1000 nM. The 50% inhibitory concentration (IC50) in assay [2] was less than 100 nM; in assay [3], less than 1000 nM.
Regarding `CN(c1nc(C(=O)Nc2cnoc2)c(O)c(=O)n1C)C(c1ccccc1Cl)C1CC1` (single isomer, unassigned) [Example 69], the EC50 in assay [1] (4 h pre-treatment) was less than 1000 nM. Besides, the values for the IC50 in assay [2] and in assay [3] were less than 100 nM and less than 1000 nM, respectively.
As to `CC(c1c(Cl)cccc1Cl)N(C)c1nc(C(=O)Nc2cnoc2)c(O)c(=O)n1C` (single isomer, unassigned) [Example 70], the EC50 in assay [1] (setting [4]) was 1000 to 10000 nM. Moreover, the IC50 is less than 100 nM in assay [2] and less than 1000 nM in assay [3].
Regarding `CC(c1c(Cl)cccc1Cl)N(C)c1nc(C(=O)Nc2cnoc2)c(O)c(=O)n1C` (single isomer, unassigned) [Example 71], the EC50 in assay [1] (4 h pre-treatment) is less than 1000 nM. In addition, the 50% inhibitory concentration (IC50) in assay [2] is less than 100 nM; in assay [3] it was less than 1000 nM.
With `Cc1ncc(C(c2ccccc2Cl)N(C)c2nc(C(=O)Nc3cnoc3)c(O)c(=O)n2C)cn1` (single isomer, unassigned) [Example 81], the 50% effective concentration (EC50) in assay [1] (setting [4]) is less than 1000 nM. Also, the figures for the IC50 in assay [2] and in assay [3] were less than 100 nM and less than 1000 nM, respectively.
Take `CN(c1nc(C(=O)Nc2cnoc2)c(O)c(=O)n1C)C(c1ccccc1)c1ccccc1C(F)(F)F` (single isomer, unassigned) [Example 83]: the concentration for a half-maximal effect (EC50) in assay [1] (setting [4]) is less than 1000 nM. Also, the IC50 in assay [2] was less than 100 nM; in assay [3], less than 1000 nM.
With `CN(c1nc(C(=O)Nc2cnoc2)c(O)c(=O)n1C)C(c1ccccc1)c1ccccc1C(F)(F)F` (single isomer, unassigned) [Example 84], the concentration for a half-maximal effect (EC50) in assay [1] (4 h pre-treatment) was less than 1000 nM. Further, the results for the IC50 in assay [2] and in assay [3] were less than 100 nM and less than 1000 nM, respectively.
